pIC50: −log10 of the molar value.
Experiments:
[1] = biological target: T1, N-type Ca2+ channels in IMR-32 cells (Homo sapiens, UniProt Q00975); assay: Inhibition of N-type calcium flux in IMR-32 cells (Indo-1 fluorescence, nitrendipine present); type: cell-based; conditions: for inhibition at 1 µM / inhibition at 10 µM: IMR-32; for pIC50: IMR-32 cells, 5 μM nitrendipine, K+ depolarization
T1 construct: host or cells: IMR-32 cells, differentiated with dibutyryl cAMP and bromodeoxyuridine
In short: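 Differentiated IMR-32 cells (7–13 days) were loaded with 5 μM Indo-1 AM, preincubated with compound for 10 min at 30° C, and depolarized with KCl/CaCl2 stimulation solution, with 5 μM nitrendipine blocking L-channels. Peak-minus-basal 400/490 nm emission ratio was plotted against drug concentration, and IC50 came from four-parameter logistic fits.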

[2] = biological target: T2, N-type Ca2+ channels in superior cervical ganglion (SCG) neurons (Rattus norvegicus, UniProt Q02294); assay: Whole-cell voltage clamp, N-type Ca2+ current in SCG neurons; type: cell-based; conditions: for pIC50: read-out: Inhibition of N-type Ca2+ Current IC50
T2 construct: from tissue
In short: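 Whole-cell voltage clamp of acutely trypsin-dissociated rat SCG neurons, with TEA/choline external solution (2 mM Ca2+) and Cs-methanesulfonate pipette solution. Currents evoked by 150 ms steps to +20 mV from −65 to −55 mV holding, every 40 s; compounds applied locally, effect as % inhibition of control amplitude.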

[3] = test system: K+ channels in superior cervical ganglion (SCG) neurons; assay: Whole-cell voltage clamp, K+ current in SCG neurons; type: cell-based, rat
In short: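 Acutely dissociated (trypsin) SCG neurons under whole-cell voltage clamp, external NaCl/KCl/HEPES buffer pH 7.4, K-gluconate/KCl pipette. From holding potential −65 to −55 mV, 35 msec steps every 10 sec to 0 mV (peak Na+ current) or +50 mV (sustained K+ current); compounds perfused locally to steady-state block, reported as percent inhibition of control.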

T1 sequence (Q00975 whole entry): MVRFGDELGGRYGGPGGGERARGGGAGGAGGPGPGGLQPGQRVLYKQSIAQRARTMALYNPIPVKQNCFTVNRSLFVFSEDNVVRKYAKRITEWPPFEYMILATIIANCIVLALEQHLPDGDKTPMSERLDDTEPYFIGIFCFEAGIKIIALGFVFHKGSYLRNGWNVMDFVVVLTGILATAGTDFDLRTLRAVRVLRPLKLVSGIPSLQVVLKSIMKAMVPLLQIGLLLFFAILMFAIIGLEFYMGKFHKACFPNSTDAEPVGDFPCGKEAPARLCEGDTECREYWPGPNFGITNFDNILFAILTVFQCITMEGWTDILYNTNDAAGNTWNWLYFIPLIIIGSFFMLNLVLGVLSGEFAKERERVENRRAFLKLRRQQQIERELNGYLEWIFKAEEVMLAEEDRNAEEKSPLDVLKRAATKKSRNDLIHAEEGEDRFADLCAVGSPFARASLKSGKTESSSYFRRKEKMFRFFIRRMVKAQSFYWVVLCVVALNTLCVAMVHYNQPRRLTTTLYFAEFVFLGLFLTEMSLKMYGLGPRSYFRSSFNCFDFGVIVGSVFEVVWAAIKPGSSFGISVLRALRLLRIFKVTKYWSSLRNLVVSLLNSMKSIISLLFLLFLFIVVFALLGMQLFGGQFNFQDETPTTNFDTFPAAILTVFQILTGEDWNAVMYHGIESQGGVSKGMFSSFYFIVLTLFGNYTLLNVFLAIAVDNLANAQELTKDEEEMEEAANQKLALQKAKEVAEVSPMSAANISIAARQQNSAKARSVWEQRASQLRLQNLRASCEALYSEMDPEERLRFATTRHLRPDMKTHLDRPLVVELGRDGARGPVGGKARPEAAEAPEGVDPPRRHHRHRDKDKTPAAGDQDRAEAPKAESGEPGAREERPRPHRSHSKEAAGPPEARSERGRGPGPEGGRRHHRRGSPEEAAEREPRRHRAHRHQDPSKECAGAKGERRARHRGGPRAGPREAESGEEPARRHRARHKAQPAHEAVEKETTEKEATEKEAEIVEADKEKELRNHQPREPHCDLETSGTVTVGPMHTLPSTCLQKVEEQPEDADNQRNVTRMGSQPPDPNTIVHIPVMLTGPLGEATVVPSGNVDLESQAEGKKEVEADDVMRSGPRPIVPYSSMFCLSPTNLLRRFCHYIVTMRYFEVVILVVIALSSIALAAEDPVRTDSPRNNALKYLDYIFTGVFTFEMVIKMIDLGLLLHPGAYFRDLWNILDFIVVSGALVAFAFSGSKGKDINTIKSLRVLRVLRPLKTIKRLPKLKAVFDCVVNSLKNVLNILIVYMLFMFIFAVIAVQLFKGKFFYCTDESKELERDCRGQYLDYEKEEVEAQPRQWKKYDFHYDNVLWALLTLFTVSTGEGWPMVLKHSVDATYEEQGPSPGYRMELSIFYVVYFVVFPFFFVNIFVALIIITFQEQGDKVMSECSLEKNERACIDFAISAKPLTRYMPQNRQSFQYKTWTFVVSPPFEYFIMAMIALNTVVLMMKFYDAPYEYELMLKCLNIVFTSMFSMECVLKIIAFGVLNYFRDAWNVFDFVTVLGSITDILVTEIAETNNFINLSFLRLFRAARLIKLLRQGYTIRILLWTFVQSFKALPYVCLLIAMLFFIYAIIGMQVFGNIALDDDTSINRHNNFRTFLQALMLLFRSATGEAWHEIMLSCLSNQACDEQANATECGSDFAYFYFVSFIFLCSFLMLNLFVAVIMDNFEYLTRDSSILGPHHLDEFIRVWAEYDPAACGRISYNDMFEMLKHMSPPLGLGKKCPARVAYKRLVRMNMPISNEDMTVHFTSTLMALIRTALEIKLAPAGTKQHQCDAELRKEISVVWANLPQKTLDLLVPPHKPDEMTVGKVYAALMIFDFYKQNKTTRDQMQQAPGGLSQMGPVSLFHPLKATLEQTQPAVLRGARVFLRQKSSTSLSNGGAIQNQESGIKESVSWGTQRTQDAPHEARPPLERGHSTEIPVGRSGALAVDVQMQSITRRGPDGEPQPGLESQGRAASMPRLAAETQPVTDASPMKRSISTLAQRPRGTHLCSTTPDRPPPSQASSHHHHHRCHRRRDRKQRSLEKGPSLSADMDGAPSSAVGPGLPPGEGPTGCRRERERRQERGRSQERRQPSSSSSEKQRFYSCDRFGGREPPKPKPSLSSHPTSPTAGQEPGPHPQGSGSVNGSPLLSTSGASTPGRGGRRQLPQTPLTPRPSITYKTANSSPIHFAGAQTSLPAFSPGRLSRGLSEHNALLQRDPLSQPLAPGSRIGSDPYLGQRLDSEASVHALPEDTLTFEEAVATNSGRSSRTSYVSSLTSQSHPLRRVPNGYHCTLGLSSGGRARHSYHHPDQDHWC
T1 sequence (P54289 25-956 partner limits assumed): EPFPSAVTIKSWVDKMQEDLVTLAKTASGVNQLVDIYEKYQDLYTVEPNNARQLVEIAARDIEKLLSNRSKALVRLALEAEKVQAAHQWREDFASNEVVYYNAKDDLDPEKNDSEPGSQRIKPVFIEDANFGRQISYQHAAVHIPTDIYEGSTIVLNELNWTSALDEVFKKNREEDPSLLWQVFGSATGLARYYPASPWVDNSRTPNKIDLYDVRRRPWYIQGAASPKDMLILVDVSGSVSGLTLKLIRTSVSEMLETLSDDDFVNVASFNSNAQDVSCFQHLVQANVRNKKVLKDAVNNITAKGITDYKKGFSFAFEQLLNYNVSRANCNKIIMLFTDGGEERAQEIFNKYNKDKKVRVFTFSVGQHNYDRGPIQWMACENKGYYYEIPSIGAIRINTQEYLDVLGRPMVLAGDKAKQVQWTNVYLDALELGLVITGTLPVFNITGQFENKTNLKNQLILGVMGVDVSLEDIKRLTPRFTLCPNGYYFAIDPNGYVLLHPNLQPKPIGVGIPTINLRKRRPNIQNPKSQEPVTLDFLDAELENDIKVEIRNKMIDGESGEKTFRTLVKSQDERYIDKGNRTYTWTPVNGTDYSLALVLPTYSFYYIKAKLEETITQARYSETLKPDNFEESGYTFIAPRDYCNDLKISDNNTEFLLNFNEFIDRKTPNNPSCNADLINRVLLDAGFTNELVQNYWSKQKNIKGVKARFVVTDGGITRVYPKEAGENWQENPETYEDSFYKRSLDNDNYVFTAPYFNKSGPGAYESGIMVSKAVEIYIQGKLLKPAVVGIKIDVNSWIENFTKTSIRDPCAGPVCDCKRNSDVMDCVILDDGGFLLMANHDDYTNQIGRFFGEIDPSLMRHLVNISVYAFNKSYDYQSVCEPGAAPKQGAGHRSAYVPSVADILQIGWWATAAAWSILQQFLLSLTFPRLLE
T1 sequence (P54289 957-1103 partner limits assumed): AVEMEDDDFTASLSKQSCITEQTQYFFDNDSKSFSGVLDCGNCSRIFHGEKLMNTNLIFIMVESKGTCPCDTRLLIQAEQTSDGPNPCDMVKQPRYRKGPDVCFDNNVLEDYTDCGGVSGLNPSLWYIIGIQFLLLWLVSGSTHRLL
T1 sequence (P54284 whole entry partner): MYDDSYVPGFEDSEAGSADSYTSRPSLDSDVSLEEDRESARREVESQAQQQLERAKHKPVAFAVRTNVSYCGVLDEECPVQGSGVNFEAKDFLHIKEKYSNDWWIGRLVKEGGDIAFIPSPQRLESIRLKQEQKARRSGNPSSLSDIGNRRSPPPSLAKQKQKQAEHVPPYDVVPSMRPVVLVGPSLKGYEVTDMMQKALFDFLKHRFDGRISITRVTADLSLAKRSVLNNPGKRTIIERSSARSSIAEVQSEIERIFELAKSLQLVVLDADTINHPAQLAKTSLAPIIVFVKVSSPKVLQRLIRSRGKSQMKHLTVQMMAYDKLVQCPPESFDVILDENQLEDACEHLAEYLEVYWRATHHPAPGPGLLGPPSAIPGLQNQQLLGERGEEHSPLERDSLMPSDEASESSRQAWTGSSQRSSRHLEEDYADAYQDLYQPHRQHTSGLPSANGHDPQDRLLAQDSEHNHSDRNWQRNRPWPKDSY

Molecule `CC(C)C[C@H](NC(=O)N1CCCCCC1)C(=O)N[C@@H](Cc1ccc(C=Cc2ccccc2)cc1)C(=O)NC(C)(C)C` [Example 141, [S-(R*,R*)]-Azepane-1-carboxylic acid {1-[1-tert-butylcarbamoyl-2-(4-styryl-phenyl)-ethylcarbamoyl]-3-methyl-butyl}-amide] has an inhibition at 1 µM [1] of 37%, an inhibition at 10 µM [1] of 66% and an inhibition at 10 µM ([2]; 10 μM) of 39%. For the same molecule, the “Inhibition of K+ Current, % Inhibition at 10 μM” value [3] was 42%.
`CC(C)C[C@H](NC(=O)N1CCCCCC1)C(=O)N[C@@H](Cc1ccc(OCc2ccccc2)cc1)C(N)=O` [Example 21, [S-(R*,R*)]-Azepane-1-carboxylic acid {1-[2-(4-benzyloxy-phenyl)-1-carbamoyl-ethylcarbamoyl]-3-methyl-butyl}-amide] gave an inhibition at 1 µM [1] of 26%, an inhibition at 10 µM [1] of 83% and a pIC50 [1] of 5.57. For the same molecule, the inhibition at 10 µM ([2]; 10 μM) was 45% and the “Inhibition of K+ Current, % Inhibition at 10 μM” value [3] was 56%.
In the case of `CC(C)C[C@H](NC(=O)N1CCCCCC1)C(=O)N[C@@H](Cc1ccc(OCc2ccccc2)cc1)C(=O)OC(C)(C)C` [Example 1], the inhibition at 1 µM [1] was 71%, the inhibition at 10 µM [1] was 95% and the pIC50 [1] was 6.46. The inhibition at 10 µM ([2]; 10 μM) was 68%, the pIC50 [2] was 5.90 and the “Inhibition of K+ Current, % Inhibition at 10 μM” value [3] was 31%. It also gave a pIC50 ([3]; read-out: Inhibition of K+ Current IC50) of 4.62.
`CC(C)C[C@H](NC(=O)N1CCCCCC1)C(=O)N[C@@H](Cc1ccc(OCc2ccncc2)cc1)C(=O)OC(C)(C)C` [Example 26, [S-(R*,R*)]-2-{2-[(Azepane-1-carbonyl)-amino]-4-methyl-pentanoylamino}-3-[4-(pyridin-4-ylmethoxy)-phenyl]-propionic acid tert-butyl ester] gave an inhibition at 1 µM [1] of 44%, an inhibition at 10 µM [1] of 84% and a pIC50 [1] of 5.80. The inhibition at 10 µM ([2]; 10 μM) was 58% and the “Inhibition of K+ Current, % Inhibition at 10 μM” value [3] was 41%.
In the case of `CC(C)(C)OC(=O)[C@H](Cc1ccc(OCc2ccccc2)cc1)NC(=O)CNC(=O)N1CCCCCC1` (stereo in doubt) [Example 8, [S-(R*,R*)]-2-{2-[(Azepane-1-carbonyl)-amino]-acetylamino}-3-(4-benzyloxy-phenyl)-propionic acid tert-butyl ester], the “Inhibition of Calcium Flux in IMR-32 Cells % Inhibition at 1 μM” value ([1]; 1 μM) was 29%, the “Inhibition of Calcium Flux in IMR-32 Cells % Inhibition at 10 μM” value ([1]; 10 μM) was 86% and the pIC50 [1] was 5.62. For the same molecule, the “Inhibition of N-type Ca2+ Current, % Inhibition at 10 μM” value ([2]; 10 μM) was 86%, the pIC50 [2] was 5.72 and the “Inhibition of K+ Current, % Inhibition at 10 μM” value [3] was 72%.
For `CC(C)C[C@H](NC(=O)N1CCCCCC1)C(=O)N[C@@H](Cc1ccc(OCc2ccccc2)cc1)C(=O)NCCCn1ccnc1` [Example 237, [S-(R*,R*)]-Azepane-1-carboxylic acid {(1-[2-(4-benzyloxy phenyl)-1-(3-imidazol-1-yl-propylcarbamoyl)-ethylcarbamoyl]-3-methyl-butyl}-amide], the inhibition at 1 µM [1] was 52%, the inhibition at 10 µM [1] was 93% and the pIC50 [1] was 6.02. For the same molecule, the inhibition at 10 µM ([2]; 10 μM) was 79%.
`CC(C)C[C@H](NC(=O)N1CCCCCC1)C(=O)N[C@@H](Cc1ccc(OCc2ccccn2)cc1)C(=O)OC(C)(C)C` [Example 25, [S-(R*,R*)]-2-{2-[(Azepane-1-carbonyl)-amino]-4-methyl-pentanoylamino}-3-[4-(pyridin-2-ylmethoxy)-phenyl]-propionic acid tert-butyl ester] gave an inhibition at 1 µM [1] of 32%, an inhibition at 10 µM [1] of 82% and a pIC50 [1] of 5.68. The inhibition at 10 µM ([2]; 10 μM) was 66%, the pIC50 [2] was 5.27 and the “Inhibition of K+ Current, % Inhibition at 10 μM” value [3] was 51%.
`CC(C)(C)OC(=O)[C@H](Cc1ccc(OCc2ccccc2)cc1)NC(=O)[C@H](Cc1ccccc1)NC(=O)N1CCCCCC1` [Example 16] was tested, and the inhibition at 1 µM [1] was 44%, the inhibition at 10 µM [1] was 92% and the pIC50 [1] was 5.96. The inhibition at 10 µM ([2]; 10 μM) was 19% and the “Inhibition of K+ Current, % Inhibition at 10 μM” value [3] was 20%.
In the case of `CC(C)C[C@H](NC(=O)N1CCCCCC1)C(=O)N[C@@H](Cc1ccc(C#CC2(O)CCCCC2)cc1)C(=O)NC(C)(C)C` [Example 138, [S-(R*,R*)]-Azepane-1-carboxylic acid (1-({-tert-butylcarbamoyl-2-[4-(1-hydroxy-cyclohexylethynyl)-phenyl]-ethylcarbamoyl}-3-methyl-butyl)-amide], the inhibition at 1 µM [1] was 23%, the inhibition at 10 µM [1] was 67% and the inhibition at 10 µM ([2]; 10 μM) was 17%. For the same molecule, the “Inhibition of K+ Current, % Inhibition at 10 μM” value [3] was 43%.

— patent US6423689B1, “Peptidyl calcium channel blockers” (Warner-Lambert Company, priority 1997, dated 2002)
